Values of other authors, collected in patent publication US20200129491A1, “METHODS OF TREATING BRAIN TUMORS USING COMBINATION THERAPY” (AGIOS PHARMACEUTICALS, INC., priority 2017, published 2020).
Like-named read-outs stand apart in the source and are kept apart here.

Experiments:
mutant IDH1 proteins [1] = conditions: biochemical assays
mutant IDH1 proteins [2] = conditions: cellular assays
mIDH1-driven gliomas = conditions: some model systems; D. Rohle et al. Science 340:626-630 (2013)
mIDH1 cells = conditions: in vitro, mIDH1 glioma models; R. J. Molenaar et al., Cancer Research 75:4790-4802 (2015)

Structure (SMILES)	Inhibition of mutant IDH1 proteins (mutant IDH1 proteins [1])	Inhibition of mutant IDH1 proteins (mutant IDH1 proteins [2])	Inhibition of mutant IDH1 (mIDH1) (mutant IDH1 (mIDH1))	Growth of mIDH1-driven gliomas (mIDH1-driven gliomas)	Sensitivity of mIDH1 cells to radiation therapy (mIDH1 cells)
N#Cc1ccnc(N2C(=O)CC[C@H]2C(=O)N(c2cncc(F)c2)[C@H](C(=O)NC2CC(F)(F)C2)c2ccccc2Cl)c1 [Ivosidenib, (S)—N—((S)-1-(2-Chlorophenyl)-2-(3,3-difluorocyclobutylamino)-2-oxoethyl)-1-(4-cyanopyridin-2-yl)-N-(5-fluoropyridin-3-yl)-5-oxopyrrolidine-2-carboxamide]	inhibitor of mutant IDH1 proteins	inhibitor of mutant IDH1 proteins			
Cc1ccccc1C(C(=O)NC1CCCCC1)N(C(=O)Cn1ccnc1C)c1cccc(F)c1 (centres unmarked) [AGI-5198]			inhibit	repress growth	desensitized to radiation therapy
